In brackets after ≈: the same amount, converted by molar mass. Where a SMILES comes first, the peptide text is derived from it. Bridges are numbered along the chain shown (N, C = ends). The star is where a group is joined. Octanoyl = CCCCCCCC(=O)*
Legend:
PLC-γ1 = biological target: T1, PLC-γ1 (Bos taurus, UniProt P08487); assay: PLC-inhibiting activity ([3H]PIP2 hydrolysis); type: biochemical; conditions: test peptide concentration 220 μM; PI-PLC-γ1 from bovine thymus; 37° C., 10 minutes
T1 construct: A sample of PLC-γ1 was prepared from bovine thymus; from tissue; host or cells: bovine thymus
T1 sequence (P08487 1-1291): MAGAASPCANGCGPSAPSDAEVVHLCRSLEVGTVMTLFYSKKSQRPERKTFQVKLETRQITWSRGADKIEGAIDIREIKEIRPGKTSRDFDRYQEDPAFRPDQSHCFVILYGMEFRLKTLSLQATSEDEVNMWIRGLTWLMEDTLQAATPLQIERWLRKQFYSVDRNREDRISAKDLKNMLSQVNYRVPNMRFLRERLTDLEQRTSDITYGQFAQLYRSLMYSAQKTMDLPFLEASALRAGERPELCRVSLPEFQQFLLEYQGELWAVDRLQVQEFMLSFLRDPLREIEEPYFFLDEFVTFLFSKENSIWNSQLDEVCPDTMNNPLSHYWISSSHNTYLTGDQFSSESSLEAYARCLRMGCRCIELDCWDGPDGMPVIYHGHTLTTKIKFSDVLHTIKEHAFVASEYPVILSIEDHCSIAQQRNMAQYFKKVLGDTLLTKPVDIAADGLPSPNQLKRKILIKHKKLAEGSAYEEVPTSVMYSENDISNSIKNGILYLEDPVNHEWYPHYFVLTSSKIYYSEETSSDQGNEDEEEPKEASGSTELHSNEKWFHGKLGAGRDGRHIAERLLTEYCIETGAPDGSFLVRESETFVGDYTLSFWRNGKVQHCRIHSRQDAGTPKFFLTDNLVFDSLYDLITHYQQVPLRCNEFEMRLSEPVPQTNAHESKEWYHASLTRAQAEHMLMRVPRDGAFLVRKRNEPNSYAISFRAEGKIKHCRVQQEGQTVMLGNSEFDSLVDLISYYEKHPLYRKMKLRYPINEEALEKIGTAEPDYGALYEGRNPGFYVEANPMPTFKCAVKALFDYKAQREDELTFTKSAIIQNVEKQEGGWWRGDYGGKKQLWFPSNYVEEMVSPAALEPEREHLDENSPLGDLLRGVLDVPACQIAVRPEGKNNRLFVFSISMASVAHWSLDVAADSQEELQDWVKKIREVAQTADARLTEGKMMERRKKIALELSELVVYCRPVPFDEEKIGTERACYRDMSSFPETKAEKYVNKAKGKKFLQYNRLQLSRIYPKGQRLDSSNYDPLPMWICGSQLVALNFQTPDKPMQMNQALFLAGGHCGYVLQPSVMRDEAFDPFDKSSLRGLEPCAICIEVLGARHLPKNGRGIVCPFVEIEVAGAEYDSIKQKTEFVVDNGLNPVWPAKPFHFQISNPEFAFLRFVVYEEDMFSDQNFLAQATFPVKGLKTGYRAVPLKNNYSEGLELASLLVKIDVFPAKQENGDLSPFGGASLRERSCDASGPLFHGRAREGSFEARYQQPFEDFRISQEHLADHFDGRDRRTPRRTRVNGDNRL
Method: A sample of PLC-γ1 was prepared from bovine thymus according to the method described in Y. Homma et al., Biochem.J., 269, 13 (1990).
A solution having the composition shown in Table 2 was prepared on ice and the reaction was initiated by heating it to 37° C. After incubation for 10 minutes, 2 ml of a chloroform-methanol (2:1, V/V) mixed solution was added to stop the reaction. The produced inositol phosphate was extracted with 0.5 ml of 1N hydrochloric acid. The extract was separated into two liquid phases by centrifugation (2000×g, 3 minutes) and the amount of ^3 H in the supernatant (0.7 ml) was measured with a scintillation counter. […]
Percent inhibition (X) was calculated from the following equation.
where A is the obtained value of specific radioactivity, B is the value of specific radioactivity when the same amount of water was added instead of an aqueous solution of a test peptide, and C is the value of specific radioactivity when the same amount of water was added instead of a sample and an aqueous solution of a test peptide.

KMS-4 cells = assay: Cell proliferation-inhibiting activity (BrdU incorporation); type: cell-based; conditions: test peptide concentration 6 μM, incubation for 17 hours
Method: The cell proliferation-inhibiting activity of the test peptides was determined using a cell proliferation-detecting kit available from Amersham in the following manner. KMS-4 cells (M. Nanba et al., International Journal of Cancer, 32, 697 (1983)) were added to a DMEM medium containing a 10% fetal calf serum (available from Nissui Pharmaceutical) and the cell concentration was adjusted to 1-2×10^4 cells/ml. The resulting cell suspension (1 ml) was then placed in each well of a 24-well plate (available from Corning) and incubated in a CO2 incubator (37° C., 5% CO2) for 2 days. Subsequently, the medium was replaced with a fresh DMEM medium containing a 10% fetal calf serum, and a test peptide was added, followed by incubation for 17 hours. […] The number of cells which incorporated BrdU and the total number of cells were counted within one visual field (about 200 cells) under microscopic examination and the percentage (%) of the stained cell counts per visual field was calculated. […] Cell proliferation-inhibiting activity was expressed by percent cell proliferation inhibition (X) which was calculated from the following equation. […]

[1] = tested on: Proteus vulgaris ATCC6897; type: cell-based; conditions: ATCC6897, pH 7
Method: Antimicrobial activity was determined by an agar dilution method using a medium consisting of Bacto-tryptone (available from Difco) (3 g/l), meat extract (1 g/l), glucose (1 g/l) and agar (16 g/l) (pH 7.0).

CCCCCCCC(=O)N[C@H]1CSSC[C@@H](C(N)=O)NC(=O)[C@H](C(C)C)NC(=O)[C@@H]2CCCN2C(=O)[C@H](Cc2ccc(O)cc2)NC(=O)[C@H](CCCNC(=N)N)NC(=O)[C@H](CC(C)C)NC(=O)[C@H](CCCNC(=N)N)NC(=O)[C@H](CCSC)NC(=O)[C@H](CCCCN)NC(=O)[C@H](CCCNC(=N)N)NC(=O)[C@H](Cc2ccc(O)cc2)NC(=O)[C@H](CC(C)C)NC1=O [Compound (I-4)] (Octanoyl-CLYRKMRLRYPVC-NH2; disulfide 1-13)
inhibition at 220 µM (PLC-γ1): 56%
Inhibition (%) of cell proliferation (KMS-4 cells): 61%
minimum inhibitory concentrations (MIC) [1]: 166 µg/mL (≈ 91 µM)

Source: US5847074A, “Phospholipase C-inhibiting peptides” (Kyowa Hakko Kogyo Co., Ltd., priority 1993, dated 1998)
